Results taken from patent US20200405885A1, “MAGNETIC RESONANCE IMAGING (MRI) CONTRAST AGENTS AND USE THEREOF” (TECHNION RESEARCH & DEVELOPMENT FOUNDATION LTD., priority 2017, published 2020).

Key:
[1] = Phantom T1 MRI measurement (1 T scanner); conditions: 0.1 mM dissolved in water vs control (0 mM), 1 T MRI scanner
Experimental: (§1) FIGS. 4A-C present the characterization of the MFS-agent 2 using different imaging modalities; (4A) Phantom T1 MRI-measurement (Bruker, ASPECT 1 T MRI scanner, USA) of control (0 mM) and MFS-agent (0.1 mM dissolved in water), (4B) Emission spectra of the MFS measured by confocal microscope (LSM-880, Zeiss, Germany) with 561 nm laser excitation (peak emission (nm): 617), (4C) and Phantom measurement in X-ray micro-Computed Tomography scanner (Bruker, Skyscan micro-CT, USA) of control (0 mM) and MFS-agent (0.1 mM dissolved in water).
(§2) To examine the multi-functionality of the complete MFS-agent 2 (FIG. 2B), compound 2 was solubilized in water (0.1 mM) and imaged via three distinct imaging modalities (FIG. 4A-C). […] This is a highly desirable trait, for a molecule that will be delivered through the blood stream. […] Red fluorescence emission was determined by using spectral analysis of a confocal microscope (FIG. 4B).

[2] = Phantom measurement in X-ray micro-CT scanner; conditions: 0.1 mM dissolved in water vs control (0 mM)
Experimental: as §1, §2

[3] = Solubilization of MFS-agent in water; type: physicochemical; conditions: 0.1 mM in water, no DMSO or other solvents
Experimental: as §2

[4] = Emission spectrum by confocal microscope; type: physicochemical; conditions: 561 nm laser excitation
Experimental: as §1, §2

solubility in water [3]: dissolved easily in water | peak emission [4]: 617 nm
SMILES: Nc1nc(OCc2ccc(CNC(=O)NCCOCCN(CCOCCn3cc(CNC(=O)CN4CCN(CC(=O)O)CCN(CC(=O)O)CCN(CC(=O)O)CC4)nn3)S(=O)(=O)c3ccc(C4=c5cc6c7c(c5Oc5c4cc4c8c5CCCN8CCC4)CCC[N+]=7CCC6)c(S(=O)(=O)O)c3)cc2)c2nc[nH]c2n1 [compound 2]
T1 MRI contrast [1]: very bright contrast | CT signal (X-ray attenuation) [2]: very strong CT signal
